Experiments:
[1] = cited from earlier work
[2] = cited from earlier work; remark: listed apart in the source
[3] = solubility in water / aqueous solutions; type: physicochemical; conditions: aqueous solution, ambient temperature
Text: The azithromycin citrate of the invention provides aqueous solutions up to 65% (w/w) at ambient temperature, with a pH between 6.8 and 7.5. The new addition salts of azithromycin and citric acid of the invention are particularly useful in the preparation of aqueous or water-alcohol solutions of azitromycin containing up to 65% of the salt, providing a pH between 4 and 8, stable and not suffering from chemical degradation of azithromycin.

Row | Compound | solubility in water [1] | stability in aqueous acid medium [2] | concentration of aqueous solutions provided [3]
1 | CC[C@H]1OC(=O)[C@H](C)[C@@H](O[C@H]2C[C@@](C)(OC)[C@@H](O)[C@H](C)O2)[C@H](C)[C@@H](O[C@@H]2O[C@H](C)C[C@H](N(C)C)[C@H]2O)[C@](C)(O)C[C@@H](C)CN(C)[C@H](C)[C@@H](O)[C@]1(C)O [azithromycin, 9-deoxo-9a-aza-9a-methyl-9a-homoerythromycin A] | very insoluble | not stable | –
2 | azithromycin citrate | – | – | up to 65 % (w/w)

— patent US20070021359A1, “Addition salts of azithromycin and citric acid and process for preparing them” (priority 2003, published 2007)
